Key:
Fusarium avenaceum = assay: Threshold concentration test in case of Fusarium avenaceum (infested soil, garden peas); format: in vivo; conditions: for number of sound peas: 20 grains per dish, 18 days at 20-24° C.; for root evaluation (1-4): 18 days
How it was run: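 Soil heavily infested with Fusarium avenaceum was mixed uniformly with a 20% powder formulation of active agent, then sown immediately with 20 garden pea seeds ('Wunder von Kelvedon') per dish. After 18 days in a greenhouse at 20° to 24° C., sound plants were counted and roots scored on a 1–4 scale.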

Tilletia caries = assay: Treatment of oat seeds infested with Tilletia caries (spore germination); format: in vivo
Botrytis cinerea = assay: Prophylactic leaf treatment of tomato plants against Botrytis cinerea; format: in vivo; conditions: concentration of 0.025 of the active agent (unit not given)
Plasmopara viticola = assay: Prophylactic leaf treatment of grapevines in the hothouse against Plasmopara viticola; format: in vivo
Experimental: Effects of prophylactic leaf treatment of grapevines in the hothouse against Plasmopara viticola
Young grapevine plants having from 5 to 8 leaves were sprayed dripping wet with the concentrations of active agents stated in the table below. After drying of the spray deposit the leaves were sprayed with an aqueous suspension of sporangia of the fungus (about 20,000 per ml); the spraying was applied to the bottom side of the leaves. The plants were then immediately incubated in a hothouse at a temperature of 22° to 24° C. and at maximum water saturation in the atmosphere. Beginning with the second day the humidity of the air was reduced for 3 to 4 days to normal level (30 to 70% saturation) and was then maintained for another day on the level of full saturation. Subsequently, the percentage portion of the fungus infested surface of each leaf was noted and the average per treatment was calculated in order to determine the fungicidal activity. This was done on the basis of the following formula: [formula]
The active compounds were applied in the form of a 20% concentration spray powder.

Pythium ultimum = assay: Threshold concentration test for use of the compounds against Pythium ultimum (infested soil, garden peas); format: in vivo; design: key to root evaluation (1-4): 4: white roots without fungous necrosis; 3: white roots, minor fungous necrosis; 2: brown roots, already more pronounced fungous necrosis; 1: heavy fungous necrosis, roots rotted; conditions: for root evaluation (1-4): 3 weeks; for number of sound peas: 20 grains per dish, 3 weeks at 20-24° C.
How it was run: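 Pulverulent agents at 20% concentration mixed evenly into soil heavily infested with Pythium ultimum, then garden peas ('Wunder von Kelvedon', 20 per dish) sown at once. After three weeks at 20–24 °C in a hothouse, sound peas counted and roots scored on a 1–4 scale.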

Helminthosporium gram = conditions: 50 g active agent per 100 kg; about 5 weeks
Experimental: Treatment of barley seeds infested with Helminthosporium gram
After emergence, the plants were subjected to illumination for 12 hours per day. After about 5 weeks the infested plants were counted and the total number of plants for each test were also counted. The active agents tested were used as pulverulent compositions.

[1] = concentration of active agent 0.005 (unit not given)
[2] = concentration of active agent 0.025 (unit not given)

Structure (SMILES) | number of sound peas (Fusarium avenaceum; 25 mg/l soil) | root evaluation (1-4) (Fusarium avenaceum; 25 mg/l soil) | number of sound peas (Fusarium avenaceum; 50 mg/l soil) | root evaluation (1-4) (Fusarium avenaceum; 50 mg/l soil) | number of sound peas (Fusarium avenaceum; 100 mg/l soil) | root evaluation (1-4) (Fusarium avenaceum; 100 mg/l soil) | % activity (Tilletia caries; 50 g active agent per 100 kg) | % activity (Botrytis cinerea) | % activity (Tilletia caries; 20 g active agent per 100 kg) | % activity (Plasmopara viticola; [1]) | % activity (Plasmopara viticola; [2]) | root evaluation (1-4) (Pythium ultimum; 20 mg/l soil) | number of sound peas (Pythium ultimum; 20 mg/l soil) | root evaluation (1-4) (Pythium ultimum; 40 mg/l soil) | number of sound peas (Pythium ultimum; 40 mg/l soil) | root evaluation (1-4) (Pythium ultimum; 80 mg/l soil) | number of sound peas (Pythium ultimum; 80 mg/l soil) | % activity (Helminthosporium gram) | % activity (Plasmopara viticola; concentration of active agent 0.001 (unit not given)) | % activity (Tilletia caries; 10 g active agent per 100 kg)
CCCCCS(=O)(=O)c1nnc(C(N)=O)s1 [5-pentylsulfonyl-1,3,4-thiadiazole-2-carboxamide] | 9 | 2 | 16 | 3 | 18 | 4 | 80% | 87% | – | – | – | – | – | – | – | – | – | – | – | –
CCCCNC(=O)c1nnc([S+]([O-])CCC)s1 (stereo not shown) [5-propylsulfinyl-1,3,4-thiadiazole-2-carboxylic acid-butylamide] | – | – | – | – | – | – | 100% | 80% | 100% | 91% | 99.1% | – | – | – | – | – | – | – | – | –
CCC[S+]([O-])c1nnc(C(=O)N(C)C)s1 (stereo not shown) [5-propylsulfinyl-1,3,4-thiadiazole-2-carboxylic acid-dimethylamide] | – | – | – | – | – | – | 100% | 80% | 100% | – | – | 1 | 12 | 4 | 18 | 4 | 19 | 100% | – | –
CCCCCCNC(=O)c1nnc([S+]([O-])CCC)s1 (stereo not shown) [5-propylsulfinyl-1,3,4-thiadiazole-2-carboxylic acid-hexylamide] | – | – | – | – | – | – | 100% | 80% | 100% | 99.1% | 100% | – | – | – | – | – | – | – | 95% | –
CCCS(=O)(=O)c1nnc(C(N)=O)s1 [5-propylsulfonyl-1,3,4-thiadiazole-2-carboxamide] | – | – | – | – | – | – | 100% | 94% | 100% | 89% | 95% | 1 | 12 | 4 | 19 | 4 | 17 | – | – | 100%
CCCS(=O)(=O)c1nnc(C(=O)N2CCC2)s1 [5-propylsulfonyl-1,3,4-thiadiazole-2-carboxylic acid-N,N-trimethyleneamide] | 11 | 2 | 17 | 3 | 17 | 3 | 100% | 87% | – | – | – | 1 | 6 | 4 | 19 | 4 | 18 | – | – | –
CCCS(=O)(=O)c1nnc(C(=O)NC)s1 [5-propylsulfonyl-1,3,4-thiadiazole-2-carboxylic acid-methylamide] | – | – | – | – | – | – | 100% | 88% | 99.5% | – | – | 4 | 19 | 4 | 16 | 4 | 15 | – | – | 99.5%
CCCNC(=O)c1nnc(S(=O)(=O)CCC)s1 [5-propylsulfonyl-1,3,4-thiadiazole-2-carboxylic acid-propylamide] | – | – | – | – | – | – | 100% | 80% | 99.7% | – | 93% | 1 | 10 | 4 | 16 | 4 | 16 | – | – | 99.5%
